{
  "source": "patent EP0338042B1",
  "about": "“COMPOSITION AND METHOD FOR TREATING HEPATITIS VIRUS INFECTIONS USING 1-(2'-DEOXY-2'-FLUORO-BETA-D-ARABINOFURANOSYL)-5-ETHYLURACIL” (priority 1987, dated 1989)",
  "key": {"Vero cells [1]": {"system": "Vero cells", "settings": "cytotoxic effect measured in rapidly dividing cells; read-out: ID₅₀; cited from earlier work"}, "L-1210": {"system": "L-1210", "test": "Incorporation of 2-14C-labeled nucleoside into DNA of cells", "type": "cell-based, rodent", "settings": "FEAU also not detectable at 100 μM", "excerpt": "(§1) There was no detectable incorporation of FEAU radioactivity into the DNA of either L-1210 or Vero cell lines, but substantial amounts of FMAU radioactivity were incorporated into the DNA of both cell lines. When HSV-1 infected Vero cells were exposed to ¹⁴C-labeled FEAU and FMAU, both nucleosides incorporated into the DNA of these virus-infected cells."}, "Vero cells [2]": {"system": "Vero cells", "test": "Inhibition of cell growth", "type": "cell-based, African green monkey", "settings": "Chlorocebus sabaeus, read-out: ED50 FOR INHIBITING CELL GROWTH IN VERO CELLS"}, "RAT BONE MARROW CELLS": {"system": "RAT BONE MARROW CELLS", "test": "Inhibition of thymidine incorporation into DNA", "type": "cell-based", "settings": "Bone marrow cell, read-out: ED50 FOR […] INC[…] DNA, RAT BONE MARROW CELLS, read-out: ED50 FOR INHIBITING THYMIDINE INCORPORATION INTO DNA, RAT BONE MARROW CELLS"}, "HL-60 CELLS": {"system": "HL-60 CELLS", "test": "Inhibition of cell growth", "type": "cell-based", "settings": "Homo sapiens, HL-60, read-out: ED50 FOR INHIBITING CELL GROWTH IN HL-60 CELLS"}, "VERO": {"system": "VERO", "test": "Incorporation of 2-14C-labeled nucleoside into DNA of cells", "type": "cell-based, African green monkey", "settings": "FEAU also not detectable at 100 μM", "excerpt": "as §1"}, "[3]": {"system": "HSV-1 INFECTED VERO CELLS", "test": "Incorporation of 2-14C-labeled nucleoside into DNA of cells", "type": "cell-based, African green monkey", "settings": "[2-14C] labeled nucleoside", "excerpt": "as §1"}, "P-815 CELLS": {"system": "P-815 CELLS", "test": "Inhibition of thymidine incorporation into DNA", "type": "cell-based, rodent", "settings": "Mus musculus, P815, read-out: ED50 FOR […] INC[…] DNA, P-815 CELLS; read-out: ED50 FOR INHIBITING THYMIDINE INCORPORATION INTO DNA, P-815 CELLS"}, "[4]": {"system": "woodchuck hepatitis virus (WHV)", "test": "Inhibition of WHV replication in chronically infected woodchucks (DNA polymerase activity)", "type": "in vivo, woodchucks (Marmota monax)", "settings": "for WHV replication by day 60: all 5 animals", "procedure": "All woodchucks bearing chronic active hepatitis virus (Hantz, supra) were administered FMAU twice daily by interperitoneal injections of FMAU in the following dosages:\nStudies were then undertaken to evaluate FMAU and FEAU in this animal model using woodchucks naturally chronically-infected with woodchuck hepatitis virus (24). It was assumed that these nucleosides would be anabolized to their nucleoside triphosphates within the animal. WHV replication was measured periodically by the endogenous DNA polymerase activity and by the detection of WHV DNA by the dot-blot hybridization assay. Three different dosages of FMAU and FEAU were investigated. FMAU at 2 mg/kg/day x 5, (given intraperitoneally TABLE VIII\nIn accordance with the procedures of Example 2, the FEAU inhibition of WHV replication was further studied at different doses administered orally to woodchucks through stomach tubes. Two groups of woodchucks with different initial WHV replication values were examined.\nSeven woodchucks with high WHV replication were tested. High replication was defined as over 1000 counts per minute of DNA polymerase activity, and the mean replication was 1600.\nSeven woodchucks with low WHV replication were tested. Low replication was defined as lower than 1000 counts per minute of DNA polymerase activity, and the mean replication was 600-800."}, "[5]": {"settings": "0.2 mg/kg/day, FMAU x 5, FEAU x 10"}},
  "data": [
    {"smiles": "CCc1cn([C@@H]2O[C@H](CO)[C@@H](O)[C@@H]2F)c(=O)[nH]c1=O", "note": "[FEAU, 1-(2'-deoxy-2'-fluoro-beta-D-arabino-furanosyl)-5-ethyl-uracil]", "values": [
      {"measurement": "CC50", "setting": "Vero cells [1]", "result": 200, "unit": "µM"},
      {"measurement": "INCORPORATION INTO DNA AT 10μM, L-1210", "setting": "L-1210", "result": "NOT DETECTABLE*"},
      {"measurement": "EC50", "setting": "Vero cells [2]", "result": "> 200", "unit": "µM"},
      {"measurement": "EC50", "setting": "RAT BONE MARROW CELLS", "result": 3700, "unit": "µM"},
      {"measurement": "EC50", "setting": "HL-60 CELLS", "result": 2060, "unit": "µM"},
      {"measurement": "INCORPORATION INTO DNA AT 10μM, VERO", "setting": "VERO", "result": "NOT DETECTABLE*"},
      {"measurement": "INCORPORATION INTO DNA AT 10μM, HSV-1 INFECTED VERO CELLS", "setting": "[3]", "result": 0.48, "unit": "p MOLE/10^6 CELLS/HR"},
      {"measurement": "EC50", "setting": "P-815 CELLS", "result": 700, "unit": "µM"},
      {"measurement": "anti-WHV effect", "setting": "[4]; 0.04 mg/kg/day x 10", "result": "somewhat diminished anti-WHV effect"},
      {"measurement": "suppression of viral replication", "setting": "[4]; [5]", "result": "equally effective"},
      {"measurement": "toxicity", "setting": "[4]; [5]", "result": "nontoxic"},
      {"measurement": "inhibitory activity after cessation of drug administration", "setting": "[4]; 0.2 or 2 mg doses, slow return to pretreatment levels", "result": "remained significant over a six-week period"},
      {"measurement": "WHV replication by the twenty-third day", "setting": "[4]; high replication woodchucks (>1000 cpm), oral 0.2 mg/kg/day, four of five still above normal level (50 cpm)", "result": "lowered replication values"},
      {"measurement": "WHV replication by day 60", "setting": "[4]; high replication woodchucks, oral 0.2 mg/kg/day, raised to 1 mg/kg/day on day 24 in four of five", "result": "completely inhibited"},
      {"measurement": "WHV replication", "setting": "[4]; i.p. 2 mg/kg/day x 10", "result": "almost immediate suppression"},
      {"measurement": "weight loss", "setting": "[4]; in vivo", "result": "about 10%"},
      {"measurement": "toxicity", "setting": "[4]; in vivo, ip, 2 mg/kg/day", "result": "did not exhibit any toxic effects"},
      {"measurement": "toxicity", "setting": "[4]; in vivo, po, 0.2 mg/kg/day", "result": "without any observed toxicity"},
      {"measurement": "WHV replication by the twenty-third day", "setting": "[4]; low replication woodchucks (<1000 cpm), oral 0.04 mg/kg/day, two of five still above normal level", "result": "lowered replication values"},
      {"measurement": "WHV replication by day 60", "setting": "[4]; low replication woodchucks, oral 0.04 mg/kg/day, raised to 0.2 mg/kg/day on day 24 in two of five", "result": "completely inhibited"},
      {"measurement": "WHV replication", "setting": "[4]; oral administration, 0.2 mg/kg/day x 10, one woodchuck, preliminary", "result": "significant suppression"}
    ]}
  ]
}
